{"source": "paper PMC11842588", "about": "“A first-in-class selective inhibitor of ERK1/2 and ERK5 overcomes drug resistance with a single-molecule strategy” (Signal Transduction and Targeted Therapy, 2025)", "test_in_all_cases": "Kinase profiling", "format_in_all_cases": "biochemical", "key": {"[1]": {"biological_target": "T1, ALK2(h) (Homo sapiens, UniProt Q04771)", "T1 construct": "purchased Eurofins Cerep SA (KinaseProfiler)", "T1 sequence (Q04771 21-509)": "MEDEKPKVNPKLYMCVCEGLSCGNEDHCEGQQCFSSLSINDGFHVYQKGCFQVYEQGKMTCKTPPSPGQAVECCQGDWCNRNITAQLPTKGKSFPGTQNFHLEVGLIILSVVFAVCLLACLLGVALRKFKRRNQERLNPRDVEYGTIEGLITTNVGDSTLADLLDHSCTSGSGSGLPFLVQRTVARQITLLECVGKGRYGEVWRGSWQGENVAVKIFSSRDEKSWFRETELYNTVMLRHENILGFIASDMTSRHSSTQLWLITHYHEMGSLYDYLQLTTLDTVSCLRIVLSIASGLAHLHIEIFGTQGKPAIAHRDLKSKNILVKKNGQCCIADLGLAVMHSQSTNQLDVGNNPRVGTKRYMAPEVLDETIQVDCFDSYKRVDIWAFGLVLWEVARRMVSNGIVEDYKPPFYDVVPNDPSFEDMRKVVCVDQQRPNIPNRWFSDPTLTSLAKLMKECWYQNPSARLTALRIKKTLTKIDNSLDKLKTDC", "procedure": "(§1) 380 kinases inhibitory activities of SKLB-D18 were conducted by Eurofins Cerep SA. The result was illustrated by kinase tree (http://www.kinhub.org/kinmap/)."}, "[2]": {"biological_target": "T2, Arg(h) (Homo sapiens, UniProt P42684)", "T2 construct": "purchased Eurofins Cerep SA (KinaseProfiler)", "T2 sequence (P42684 whole entry)": "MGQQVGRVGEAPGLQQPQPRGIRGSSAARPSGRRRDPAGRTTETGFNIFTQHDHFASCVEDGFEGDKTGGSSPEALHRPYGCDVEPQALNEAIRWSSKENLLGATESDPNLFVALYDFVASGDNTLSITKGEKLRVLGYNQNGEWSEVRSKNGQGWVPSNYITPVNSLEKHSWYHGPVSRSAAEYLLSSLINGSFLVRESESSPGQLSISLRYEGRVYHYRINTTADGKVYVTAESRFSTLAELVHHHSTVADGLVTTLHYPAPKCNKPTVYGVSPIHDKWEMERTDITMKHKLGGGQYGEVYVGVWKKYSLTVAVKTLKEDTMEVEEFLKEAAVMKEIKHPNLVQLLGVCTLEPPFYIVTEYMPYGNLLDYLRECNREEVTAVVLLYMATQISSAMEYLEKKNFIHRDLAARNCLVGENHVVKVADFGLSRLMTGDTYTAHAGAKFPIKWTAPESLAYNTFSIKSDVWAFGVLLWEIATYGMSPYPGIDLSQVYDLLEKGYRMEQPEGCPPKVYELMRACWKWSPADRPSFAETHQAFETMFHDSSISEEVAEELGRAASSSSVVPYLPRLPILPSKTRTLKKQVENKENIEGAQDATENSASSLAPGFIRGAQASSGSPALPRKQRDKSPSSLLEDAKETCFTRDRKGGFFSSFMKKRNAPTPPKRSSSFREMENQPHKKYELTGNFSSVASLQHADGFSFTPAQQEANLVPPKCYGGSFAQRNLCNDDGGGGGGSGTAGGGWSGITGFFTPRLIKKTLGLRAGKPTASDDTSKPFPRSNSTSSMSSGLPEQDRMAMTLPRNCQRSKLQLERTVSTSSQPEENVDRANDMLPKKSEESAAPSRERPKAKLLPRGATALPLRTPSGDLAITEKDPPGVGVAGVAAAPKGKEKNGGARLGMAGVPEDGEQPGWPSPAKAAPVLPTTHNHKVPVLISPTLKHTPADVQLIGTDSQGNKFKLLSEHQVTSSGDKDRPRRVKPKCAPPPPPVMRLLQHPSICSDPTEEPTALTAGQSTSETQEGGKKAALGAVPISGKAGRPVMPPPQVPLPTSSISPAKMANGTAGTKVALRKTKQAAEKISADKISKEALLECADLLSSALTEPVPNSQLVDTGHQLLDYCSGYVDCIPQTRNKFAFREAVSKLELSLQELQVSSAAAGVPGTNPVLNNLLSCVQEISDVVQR", "procedure": "as §1"}, "[3]": {"biological_target": "T3, DCAMKL3(h) (Homo sapiens, UniProt Q9C098)", "T3 construct": "purchased Eurofins Cerep SA (KinaseProfiler)", "procedure": "as §1"}, "[4]": {"biological_target": "T4, GCN2(h) (Homo sapiens, UniProt Q9P2K8)", "T4 construct": "purchased Eurofins Cerep SA (KinaseProfiler)", "T4 sequence (Q9P2K8 whole entry)": "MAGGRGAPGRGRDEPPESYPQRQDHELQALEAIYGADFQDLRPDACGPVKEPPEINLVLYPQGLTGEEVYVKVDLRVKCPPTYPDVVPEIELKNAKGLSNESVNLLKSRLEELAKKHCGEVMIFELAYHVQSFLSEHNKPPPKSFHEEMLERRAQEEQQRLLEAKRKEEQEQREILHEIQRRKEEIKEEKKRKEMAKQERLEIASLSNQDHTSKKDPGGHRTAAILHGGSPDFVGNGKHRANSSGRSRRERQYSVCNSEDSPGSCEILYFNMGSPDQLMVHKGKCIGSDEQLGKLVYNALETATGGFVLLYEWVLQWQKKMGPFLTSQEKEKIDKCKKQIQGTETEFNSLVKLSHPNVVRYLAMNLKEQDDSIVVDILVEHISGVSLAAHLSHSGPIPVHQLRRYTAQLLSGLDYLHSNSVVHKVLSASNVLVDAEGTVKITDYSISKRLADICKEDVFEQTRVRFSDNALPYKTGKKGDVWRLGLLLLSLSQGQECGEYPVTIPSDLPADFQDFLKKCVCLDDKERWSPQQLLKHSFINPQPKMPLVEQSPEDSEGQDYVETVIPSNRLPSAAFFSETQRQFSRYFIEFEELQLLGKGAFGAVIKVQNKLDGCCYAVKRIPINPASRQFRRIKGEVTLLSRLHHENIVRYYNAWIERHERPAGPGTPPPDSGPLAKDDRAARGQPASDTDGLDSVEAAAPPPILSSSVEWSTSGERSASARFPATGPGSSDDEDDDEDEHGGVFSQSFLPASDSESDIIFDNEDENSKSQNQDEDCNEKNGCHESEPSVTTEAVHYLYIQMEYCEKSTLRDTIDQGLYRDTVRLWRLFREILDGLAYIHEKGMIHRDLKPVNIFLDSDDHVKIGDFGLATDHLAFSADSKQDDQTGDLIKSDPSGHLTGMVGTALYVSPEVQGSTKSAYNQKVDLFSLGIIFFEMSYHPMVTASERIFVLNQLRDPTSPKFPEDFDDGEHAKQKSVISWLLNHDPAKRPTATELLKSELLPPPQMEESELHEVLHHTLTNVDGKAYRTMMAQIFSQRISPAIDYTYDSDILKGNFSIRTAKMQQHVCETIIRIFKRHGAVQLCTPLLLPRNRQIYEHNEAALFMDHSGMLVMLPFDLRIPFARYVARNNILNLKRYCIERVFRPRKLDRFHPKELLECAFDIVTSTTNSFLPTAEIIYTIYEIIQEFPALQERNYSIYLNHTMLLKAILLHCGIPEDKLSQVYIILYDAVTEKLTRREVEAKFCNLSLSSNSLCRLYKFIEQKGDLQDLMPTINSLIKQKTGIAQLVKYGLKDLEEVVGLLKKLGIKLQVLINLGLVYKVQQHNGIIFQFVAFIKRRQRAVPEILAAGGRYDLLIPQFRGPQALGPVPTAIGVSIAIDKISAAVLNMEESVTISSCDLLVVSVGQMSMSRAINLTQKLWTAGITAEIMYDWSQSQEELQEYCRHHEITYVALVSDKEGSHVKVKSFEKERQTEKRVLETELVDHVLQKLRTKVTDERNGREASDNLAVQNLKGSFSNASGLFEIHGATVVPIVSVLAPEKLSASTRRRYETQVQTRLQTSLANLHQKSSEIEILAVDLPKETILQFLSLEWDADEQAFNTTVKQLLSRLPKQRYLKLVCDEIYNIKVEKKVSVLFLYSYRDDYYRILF", "procedure": "as §1"}, "[5]": {"biological_target": "T5, HIPK1(h) (Homo sapiens, UniProt Q86Z02)", "T5 construct": "purchased Eurofins Cerep SA (KinaseProfiler)", "procedure": "as §1"}, "[6]": {"biological_target": "T6, IGF-1R(h) (Homo sapiens, UniProt P08069)", "T6 construct": "purchased Eurofins Cerep SA (KinaseProfiler)", "procedure": "as §1"}, "[7]": {"biological_target": "T7, NEK6(h) (Homo sapiens, UniProt Q9HC98)", "T7 construct": "purchased Eurofins Cerep SA (KinaseProfiler)", "procedure": "as §1"}, "[8]": {"biological_target": "T8, PAR-1Bα(h) (Homo sapiens, UniProt Q7KZI7)", "T8 construct": "purchased Eurofins Cerep SA (KinaseProfiler)", "procedure": "as §1"}, "[9]": {"biological_target": "T9, Plk3(h) (Homo sapiens, UniProt Q9H4B4)", "T9 construct": "purchased Eurofins Cerep SA (KinaseProfiler)", "T9 sequence (Q9H4B4 whole entry)": "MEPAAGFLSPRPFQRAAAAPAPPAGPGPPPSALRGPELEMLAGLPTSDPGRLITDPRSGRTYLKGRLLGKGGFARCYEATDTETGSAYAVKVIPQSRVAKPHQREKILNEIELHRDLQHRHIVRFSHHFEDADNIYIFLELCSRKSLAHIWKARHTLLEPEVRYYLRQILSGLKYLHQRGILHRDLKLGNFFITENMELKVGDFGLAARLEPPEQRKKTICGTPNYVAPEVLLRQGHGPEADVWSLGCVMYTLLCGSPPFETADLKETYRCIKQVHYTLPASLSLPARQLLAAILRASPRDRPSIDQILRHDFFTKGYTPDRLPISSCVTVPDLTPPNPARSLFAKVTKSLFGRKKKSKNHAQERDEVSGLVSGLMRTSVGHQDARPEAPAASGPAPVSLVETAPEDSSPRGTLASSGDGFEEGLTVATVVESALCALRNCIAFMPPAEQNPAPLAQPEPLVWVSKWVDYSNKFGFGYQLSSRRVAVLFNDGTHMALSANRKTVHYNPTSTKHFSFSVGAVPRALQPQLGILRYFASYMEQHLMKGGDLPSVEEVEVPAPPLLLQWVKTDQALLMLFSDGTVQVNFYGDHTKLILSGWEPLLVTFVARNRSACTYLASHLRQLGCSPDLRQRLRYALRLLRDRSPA", "procedure": "as §1"}, "[10]": {"biological_target": "T10, Tie2 (h) (Homo sapiens, UniProt Q02763)", "T10 construct": "purchased Eurofins Cerep SA (KinaseProfiler)", "T10 sequence (Q02763 23-1124)": "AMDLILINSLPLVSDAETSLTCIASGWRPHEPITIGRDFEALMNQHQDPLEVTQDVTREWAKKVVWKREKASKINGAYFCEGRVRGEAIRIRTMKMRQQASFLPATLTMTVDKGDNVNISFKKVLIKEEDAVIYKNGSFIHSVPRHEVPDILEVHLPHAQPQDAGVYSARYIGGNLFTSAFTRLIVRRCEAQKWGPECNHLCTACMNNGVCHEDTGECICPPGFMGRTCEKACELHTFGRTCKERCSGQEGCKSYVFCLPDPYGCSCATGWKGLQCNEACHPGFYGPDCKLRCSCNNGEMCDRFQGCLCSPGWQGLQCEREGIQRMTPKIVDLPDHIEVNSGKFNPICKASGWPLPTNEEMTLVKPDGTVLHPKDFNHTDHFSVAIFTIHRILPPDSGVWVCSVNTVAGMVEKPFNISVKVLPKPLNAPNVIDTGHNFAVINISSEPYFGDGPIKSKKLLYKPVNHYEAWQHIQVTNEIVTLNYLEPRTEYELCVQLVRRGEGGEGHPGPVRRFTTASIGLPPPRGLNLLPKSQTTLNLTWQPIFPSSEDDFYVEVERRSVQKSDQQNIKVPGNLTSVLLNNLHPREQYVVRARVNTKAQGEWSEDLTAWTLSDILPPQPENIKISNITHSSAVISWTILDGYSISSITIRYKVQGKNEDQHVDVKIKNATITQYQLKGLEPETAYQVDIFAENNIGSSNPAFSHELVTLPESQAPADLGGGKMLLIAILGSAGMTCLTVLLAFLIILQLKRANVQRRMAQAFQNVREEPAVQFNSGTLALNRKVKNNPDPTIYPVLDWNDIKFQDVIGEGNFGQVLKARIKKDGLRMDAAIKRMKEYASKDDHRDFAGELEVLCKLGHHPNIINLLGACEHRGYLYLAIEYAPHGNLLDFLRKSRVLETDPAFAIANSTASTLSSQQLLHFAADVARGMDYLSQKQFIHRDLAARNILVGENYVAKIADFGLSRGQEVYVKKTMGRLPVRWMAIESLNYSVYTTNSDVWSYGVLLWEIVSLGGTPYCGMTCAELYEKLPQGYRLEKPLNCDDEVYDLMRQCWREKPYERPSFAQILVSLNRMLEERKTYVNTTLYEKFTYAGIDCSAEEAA", "procedure": "as §1"}}}
{"compound": "CN(C)Cc1cccc(Nc2ncc(Cl)c(-c3csc(C(=O)NN4CCOCC4)c3)n2)c1", "note": "[SKLB-D18, 4-(5-chloro-2-((3-((dimethylamino)methyl)phenyl)amino)pyrimidin-4-yl)-N-morpholinothiophene-2-carboxamide]", "values": [{"measurement": "inhibition at 1 µM", "setting": "[1]", "value": 16, "unit": "%"}, {"measurement": "inhibition at 1 µM", "setting": "[2]", "value": 43, "unit": "%"}, {"measurement": "inhibition at 1 µM", "setting": "[3]", "value": 66, "unit": "%"}, {"measurement": "inhibition at 1 µM", "setting": "[4]", "value": 69, "unit": "%"}, {"measurement": "inhibition at 1 µM", "setting": "[5]", "value": 68, "unit": "%"}, {"measurement": "inhibition at 1 µM", "setting": "[6]", "value": 7, "unit": "%"}, {"measurement": "inhibition at 1 µM", "setting": "[7]", "value": 0, "unit": "%"}, {"measurement": "inhibition at 1 µM", "setting": "[8]", "value": 65, "unit": "%"}, {"measurement": "inhibition at 1 µM", "setting": "[9]", "value": 6, "unit": "%"}, {"measurement": "inhibition at 1 µM", "setting": "[10]", "value": 44, "unit": "%"}]}
